Assay results taken from patent US20250290928A1, “METHOD, KIT AND DEVICE FOR DETECTING EXTRACELLULAR VESICLES” (priority 2022, published 2025).

Tests used:
[1] = test system: β-galactosidase activity inherent in the MDA-MB-231-derived extracellular vesicles; experiment: Evaluation of β-galactosidase activity of MDA-MB-231-derived extracellular vesicles in 96-well plate; assay type: biochemical, Human; conditions: Example 33, 30° C., no CD9/CD63/CD81 detection system
Description: For detection of MMP14 activity, 1 mM Custom #2 and a 100 µM resorufin β-D-galactopyranoside solution were diluted with the buffer ([…]) containing 10 μM Custom #2 and 5 μM resorufin β-D-galactopyranoside. In addition, the solution was diluted 2-fold with the buffer (4) to prepare a detection solution (2). Nonfluorescent resorufin β-D-galactopyranoside is degraded by β-galactosidase to produce fluorescent resorufin. In this case, the maximum wavelengths of excitation and fluorescence of resorufin are 570 nm and 585 nm, respectively.
In addition, 50 μL of the detection solution (1) was added to 50 μL of each of the prepared standard samples with seven concentrations and the sample for BG measurement, and the resultant solution was used in measurement of MMP14 activity and β-galactosidase activity with a 96-well plate.
Evaluation was performed in the same manner as in Example 1 except that the reaction temperature was set to 30° C. ΔRFU was calculated by subtracting the measured value of the sample for BG measurement from the measured value of each of the samples. In this case, resorufin produced by β-galactosidase activity was simultaneously measured at an excitation wavelength of 545±20 nm and a fluorescence wavelength of 590±20 nm, and ΔRFU was calculated similarly.

[2] = test system: CD9/CD63/CD81 in the extracellular vesicles; experiment: Digital CD9/CD63/CD81 sandwich detection with biotinylated detection antibody and streptavidin-conjugated β-galactosidase; assay type: binding, Human; conditions: Example 33, 30° C., 4 h
Description: An anti-CD9 antibody (ab58989), an anti-CD63 antibody (ab59479), and an anti-CD81 antibody (ab59477) were buffer-exchanged into Biotinylation Reaction Buffer to provide an antibody solution. A biotinylation reagent NHS-PEG4-Biotin was added to the solution, and the mixture was stirred and then subjected to a reaction at room temperature for 30 minutes. After that, the resultant was washed with Biotinylation Reaction Buffer, and then recovered with Biotinylation Reaction Buffer to provide a biotinylated detection antibody solution. The biotinylated detection antibody solution was stored at 4° C. until use.
For detection of MMP14 activity, 1 mM Custom #2 and a 100 µM resorufin β-D-galactopyranoside solution were diluted with the buffer (4) to prepare a MMP14 and CD9/CD63/CD81 cocktail detection solution (1) containing 10 μM Custom #2 and 5 μM resorufin β-D-galactopyranoside. In addition, the solution was diluted 2-fold with the buffer (4) to prepare a detection solution (2). Nonfluorescent resorufin β-D-galactopyranoside is degraded by β-galactosidase to produce fluorescent resorufin. In this case, the maximum wavelengths of excitation and fluorescence of resorufin are 570 nm and 585 nm, respectively.
The observation of fluorescence derived from each fluorescent substance was performed under the same conditions as in Example 19 to acquire a fluorescence image. In this case, a TRITC filter was used in the observation of the fluorescence from resorufin.

Which results are given for `O=c1ccc2nc3ccc(O[C@@H]4O[C@H](CO)[C@H](O)[C@H](O)[C@H]4O)cc3oc-2c1` [resorufin β-D-galactopyranoside]?
β-galactosidase activity (temporal changes in fluorescence intensity) [1]: the activity was not able to be detected at all; Expected value λ (CD9/CD63/CD81) ([2]; EV 0 (BG)): 0.00927; Number of positives (CD9/CD63/CD81) ([2]; EV 0 (BG)): 20; Expected value λ (CD9/CD63/CD81) ([2]; EV X1 (sample 10 μg/mL)): 2.86; Number of positives (CD9/CD63/CD81) ([2]; EV X1 (sample 10 μg/mL)): 2,166; Expected value λ (CD9/CD63/CD81) ([2]; EV X1/3): 1.87; Number of positives (CD9/CD63/CD81) ([2]; EV X1/3): 2,315; Expected value λ (CD9/CD63/CD81) ([2]; EV X1/9): 0.750; Number of positives (CD9/CD63/CD81) ([2]; EV X1/9): 1,544; Expected value λ (CD9/CD63/CD81) ([2]; EV X1/27): 0.339; Number of positives (CD9/CD63/CD81) ([2]; EV X1/27): 725; Expected value λ (CD9/CD63/CD81) ([2]; EV X1/81): 0.0928; Number of positives (CD9/CD63/CD81) ([2]; EV X1/81): 144; Expected value λ (CD9/CD63/CD81) ([2]; EV X1/243): 0.0427; Number of positives (CD9/CD63/CD81) ([2]; EV X1/243): 78; Expected value λ (CD9/CD63/CD81) ([2]; EV X1/729): 0.0240; Number of positives (CD9/CD63/CD81) ([2]; EV X1/729): 44
